This experiment deals with Aβ plaques in cortex sections of Alzheimer's disease patients. The experiment in a line: Autoradiographical analysis of binding to human brain sections. The following applies: F-18 labelled compound; for Autoradiographical analysis of binding to cryosections from cortex: cryosections from cortex of AD patients vs controls without Aβ plaques (HC/FTD). An excerpt:
Fresh frozen as well as paraffin embedded sections of the frontal lobe from Alzheimer's dementia patients, frontotemporal dementia patients and age matched controls were used for the study. Frozen sections, sliced at 18 μm thickness on a cryostate (Leica, Germany) and paraffin sections, sliced on a sliding microtom (Leica) at a thickness of 6 μm, were mounted onto glass slides (Superfrost Plus, Fa.Menzel, Braunschweig Germany). Frozen sections were allowed to adhere to the slides for several nights at −20° C. The paraffin sections were deparaffinized using routine histological methods. For binding studies sections were incubated with the F-18 labeled test compound at 10 Bq/μl diluted in 25 mM Hepes buffer, pH 7.4, 0.1% (BSA) (200-300 μl/slide) for 1.5 hour at room temperature in a humidified chamber. For blocking experiments a 1000-fold access of the unlabeled test substance was added to the incubation mixture. After hybridization, sections were washed four times with Hepes buffer, 0.1% BSA (or alternatively two times with 40% ethanol) and finally dipped two times into dest. water for 10 sec. The air-dried sections were exposed to imaging plates and signals were detected by a phosphoimager device (Fuji BAS5000).

We go through three compounds from patent US20110243846A1, “BENZOTHIAZOLE AMIDES FOR DETECTION OF AMYLOID BETA” (priority 2008, published 2011).

For `COc1ccc2nc(NC(=O)c3ccc([18F])cc3)sc2c1` [compound 1f, 4-(^18F)fluoro-N-(6-methoxy-1,3-benzothiazol-2-yl)benzamide], the “Autoradiographical analysis of binding to cryosections from cortex” value was “Specific binding in plaque-rich regions of AD samples”. Still for that read-out and setting: the same measure for `COc1ccc2nc(NC(=O)c3cc([18F])ccn3)sc2c1` [compound 2c, 4-(^18F)fluoro-N-(6-methoxy-1,3-benzothiazol-2-yl)pyridine-2-carboxamide]: “Specific binding in plaque-rich regions of AD samples”. As for `COc1ccc2nc(NC(=O)c3cccc([18F])n3)sc2c1` [compound 3c, 6-[^18F]-fluoro-N-(6-methoxy-1,3-benzothiazol-2-yl)pyridine-2-carboxamide], under “paraffine-sections from cortex of AD patients vs controls without Aβ plaques (HC/FTD)”, the “Autoradiographical analysis of binding to paraffine-sections from cortex” value is recorded as “Specific binding in plaque-rich regions of AD samples”.
